In ChEMBL document CHEMBL1909046, “DrugMatrix in vitro pharmacology data”:

Tests used:
[1] = DRUGMATRIX: Nicotinic Acetylcholine radioligand binding (ligand: [125I] Epibatidine); format: cell membranes, Membrane; details: imr-32; Not Active = under 50% inhibition at 10 µM
[2] = DRUGMATRIX: Sigma2 radioligand binding (ligand: [3H] Ifenprodil); format: cell membranes, Rattus norvegicus, Wistar, Brain, Membrane; details: Not Active = under 50% inhibition at 10 µM
[3] = target: T1, Neuropeptide Y receptor type 2 (Homo sapiens, UniProt P49146); format: cell membranes, Membrane; details: kan-ts; note: in other assays of this panel Not Active means under 50% inhibition at 10 µM
T1 sequence (P49146 whole entry): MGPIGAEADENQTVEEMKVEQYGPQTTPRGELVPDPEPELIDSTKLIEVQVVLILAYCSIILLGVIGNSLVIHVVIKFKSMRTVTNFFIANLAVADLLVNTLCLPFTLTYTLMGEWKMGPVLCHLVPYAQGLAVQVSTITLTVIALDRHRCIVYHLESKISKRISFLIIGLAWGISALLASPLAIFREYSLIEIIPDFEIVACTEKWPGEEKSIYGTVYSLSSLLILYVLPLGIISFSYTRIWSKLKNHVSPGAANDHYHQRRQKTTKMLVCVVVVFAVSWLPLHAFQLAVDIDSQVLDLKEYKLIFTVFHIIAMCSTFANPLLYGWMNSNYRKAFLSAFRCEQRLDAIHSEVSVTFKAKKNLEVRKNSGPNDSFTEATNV

[4] = target: Protein kinase C alpha type (Homo sapiens, UniProt P17252); format: cell-based; details: sf9;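 note: inhibition of PKCalpha kinase activity measured in an enzyme assay with histone as the phosphorylation substrate; in other assays of this panel Not Active means under 50% inhibition at 10 µM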
[5] = target: Epidermal growth factor receptor (Homo sapiens, UniProt P00533); test: DRUGMATRIX: Protein Tyrosine Kinase, EGF Receptor enzyme inhibition (substrate: Poly(Glu:Tyr)); format: cell-based, Insect cells; details: insect cells; Not Active = under 50% inhibition at 10 µM
[6] = target: Cytochrome P450 2E1 (Homo sapiens, UniProt P05181); details: bti-tn-5b1-4; note: in other assays of this panel Not Active means under 50% inhibition at 10 µM
[7] = target: T2, Substance-K receptor (Homo sapiens, UniProt P21452); format: cell membranes, CHO, Membrane; details: cho; note: in other assays of this panel Not Active means under 50% inhibition at 10 µM
T2 sequence (P21452 whole entry): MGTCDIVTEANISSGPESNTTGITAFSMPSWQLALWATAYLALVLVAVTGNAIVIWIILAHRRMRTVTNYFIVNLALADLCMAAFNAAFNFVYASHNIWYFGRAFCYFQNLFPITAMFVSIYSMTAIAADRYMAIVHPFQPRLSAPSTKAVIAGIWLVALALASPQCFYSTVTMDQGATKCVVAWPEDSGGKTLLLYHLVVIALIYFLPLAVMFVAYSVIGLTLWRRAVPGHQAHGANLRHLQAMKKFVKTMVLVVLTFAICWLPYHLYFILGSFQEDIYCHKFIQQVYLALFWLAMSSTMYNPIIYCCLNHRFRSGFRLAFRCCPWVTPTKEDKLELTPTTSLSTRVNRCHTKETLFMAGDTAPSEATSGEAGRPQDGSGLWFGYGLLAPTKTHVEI

Chain of Epidermal growth factor receptor (P00533 whole entry): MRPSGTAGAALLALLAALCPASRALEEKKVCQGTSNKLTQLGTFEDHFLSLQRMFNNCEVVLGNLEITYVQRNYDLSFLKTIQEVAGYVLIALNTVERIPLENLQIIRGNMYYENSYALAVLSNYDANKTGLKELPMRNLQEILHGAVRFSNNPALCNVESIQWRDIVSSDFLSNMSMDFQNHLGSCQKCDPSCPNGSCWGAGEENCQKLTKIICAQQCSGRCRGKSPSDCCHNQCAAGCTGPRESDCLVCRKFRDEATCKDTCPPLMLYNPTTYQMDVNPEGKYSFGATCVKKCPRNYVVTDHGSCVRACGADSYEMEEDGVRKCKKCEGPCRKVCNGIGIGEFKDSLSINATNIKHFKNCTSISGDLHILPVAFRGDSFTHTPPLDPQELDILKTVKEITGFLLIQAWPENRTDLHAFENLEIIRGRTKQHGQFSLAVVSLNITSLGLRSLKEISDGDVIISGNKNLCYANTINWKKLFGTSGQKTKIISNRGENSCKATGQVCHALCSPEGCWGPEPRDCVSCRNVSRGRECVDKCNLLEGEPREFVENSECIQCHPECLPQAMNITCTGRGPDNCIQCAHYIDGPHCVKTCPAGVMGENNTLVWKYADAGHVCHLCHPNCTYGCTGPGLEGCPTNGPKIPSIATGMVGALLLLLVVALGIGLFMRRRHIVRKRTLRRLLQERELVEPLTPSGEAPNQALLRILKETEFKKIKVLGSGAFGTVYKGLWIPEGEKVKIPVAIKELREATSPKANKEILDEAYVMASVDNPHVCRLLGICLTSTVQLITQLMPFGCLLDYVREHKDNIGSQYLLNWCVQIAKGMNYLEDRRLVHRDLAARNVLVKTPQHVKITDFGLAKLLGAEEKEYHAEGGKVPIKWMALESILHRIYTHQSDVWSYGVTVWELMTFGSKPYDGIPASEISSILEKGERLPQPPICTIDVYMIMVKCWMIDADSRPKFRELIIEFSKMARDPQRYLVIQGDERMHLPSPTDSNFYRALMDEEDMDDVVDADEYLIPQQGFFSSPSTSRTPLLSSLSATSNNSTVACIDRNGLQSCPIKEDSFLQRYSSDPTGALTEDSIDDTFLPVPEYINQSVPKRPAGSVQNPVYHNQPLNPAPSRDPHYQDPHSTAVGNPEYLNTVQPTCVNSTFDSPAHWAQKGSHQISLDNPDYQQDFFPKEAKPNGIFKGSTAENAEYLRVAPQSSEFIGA
Chain of Cytochrome P450 2E1 (P05181 whole entry): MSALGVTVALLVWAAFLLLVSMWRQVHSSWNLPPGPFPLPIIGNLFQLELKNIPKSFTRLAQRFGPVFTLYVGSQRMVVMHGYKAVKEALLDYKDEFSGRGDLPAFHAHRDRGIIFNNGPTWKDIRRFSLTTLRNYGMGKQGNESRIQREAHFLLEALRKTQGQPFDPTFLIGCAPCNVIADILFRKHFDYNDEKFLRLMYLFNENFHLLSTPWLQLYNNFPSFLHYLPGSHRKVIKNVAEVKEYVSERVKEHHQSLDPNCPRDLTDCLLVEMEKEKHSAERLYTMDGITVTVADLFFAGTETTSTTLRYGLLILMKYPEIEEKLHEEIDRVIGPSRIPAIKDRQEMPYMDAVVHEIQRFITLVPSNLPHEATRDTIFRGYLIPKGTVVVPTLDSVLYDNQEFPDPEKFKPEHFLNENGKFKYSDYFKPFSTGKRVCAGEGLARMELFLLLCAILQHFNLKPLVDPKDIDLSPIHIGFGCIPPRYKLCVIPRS

CC(=O)OCC(=O)[C@@]1(O)CC[C@H]2[C@@H]3CCC4=CC(=O)CC[C@]4(C)[C@H]3C(=O)C[C@@]21C [CORTISONE ACETATE]
Not Active: IC50 [1] | Ki [1] | IC50 [2] | Ki [2] | IC50 [3] | IC50 [4] | IC50 [5] | IC50 [6] | Ki [6] | IC50 [7]

O=c1ccc2ccccc2o1 [COUMARIN]
Not Active: IC50 [1] | Ki [1] | IC50 [2] | Ki [2] | IC50 [3] | IC50 [4] | IC50 [5] | IC50 [6] | Ki [6] | IC50 [7]

CN(C)/N=N/c1[nH]cnc1C(N)=O [DACARBAZINE]
Not Active: IC50 [1] | Ki [1] | IC50 [2] | Ki [2] | IC50 [3] | IC50 [4] | IC50 [5] | IC50 [6] | Ki [6] | IC50 [7]

COc1ccc2c(c1)[C@]13CCCC[C@@H]1[C@H](C2)N(C)CC3 [DEXTROMETHORPHAN]
Not Active: IC50 [1] | Ki [1] | IC50 [2] | Ki [2] | IC50 [3] | IC50 [4] | IC50 [5] | IC50 [6] | Ki [6] | IC50 [7]

CC(=O)Nc1c(I)c(NC(C)=O)c(I)c(C(=O)O)c1I [DIATRIZOIC ACID]
Not Active: IC50 [1] | Ki [1] | IC50 [2] | Ki [2] | IC50 [3] | IC50 [4] | IC50 [5] | IC50 [6] | Ki [6] | IC50 [7]

COP(=O)(OC)OC=C(Cl)Cl [DICHLORVOS]
Not Active: IC50 [1] | Ki [1] | IC50 [2] | Ki [2] | IC50 [3] | IC50 [4] | IC50 [5] | IC50 [6] | Ki [6] | IC50 [7]

O=C(O)Cc1ccccc1Nc1c(Cl)cccc1Cl [DICLOFENAC]
Not Active: IC50 [1] | Ki [1] | IC50 [2] | Ki [2] | IC50 [3] | IC50 [4] | IC50 [5] | IC50 [6] | Ki [6] | IC50 [7]

C[C@H]1O[C@@H](O[C@H]2[C@@H](O)C[C@H](O[C@H]3[C@@H](O)C[C@H](O[C@H]4CC[C@@]5(C)[C@H](CC[C@@H]6[C@@H]5CC[C@]5(C)[C@@H](C7=CC(=O)OC7)CC[C@]65O)C4)O[C@@H]3C)O[C@@H]2C)C[C@H](O)[C@@H]1O [DIGITOXIN]
Not Active: IC50 [1] | Ki [1] | IC50 [2] | Ki [2] | IC50 [3] | IC50 [4] | IC50 [5] | IC50 [6] | Ki [6] | IC50 [7]

CCN1CC(CCN2CCOCC2)C(c2ccccc2)(c2ccccc2)C1=O (stereo not given) [DOXAPRAM]
Not Active: IC50 [1] | Ki [1] | IC50 [2] | Ki [2] | IC50 [3] | IC50 [4] | IC50 [5] | IC50 [6] | Ki [6] | IC50 [7]

Cn1c(=O)c2c(ncn2CC2OCCO2)n(C)c1=O [DOXOFYLLINE]
Not Active: IC50 [1] | Ki [1] | IC50 [2] | Ki [2] | IC50 [3] | IC50 [4] | IC50 [5] | IC50 [6] | Ki [6] | IC50 [7]

COc1cccc2c1C(=O)c1c(O)c3c(c(O)c1C2=O)C[C@@](O)(C(=O)CO)C[C@@H]3O[C@H]1C[C@H](N)[C@H](O)[C@H](C)O1 [DOXORUBICIN]
Not Active: IC50 [1] | Ki [1] | IC50 [2] | Ki [2] | IC50 [3] | IC50 [4] | IC50 [5] | IC50 [6] | Ki [6] | IC50 [7]

COc1cccc2c1C(=O)c1c(O)c3c(c(O)c1C2=O)C[C@@](O)(C(=O)CO)C[C@@H]3O[C@H]1C[C@H](N)[C@@H](O)[C@H](C)O1 [EPIRUBICIN]
Not Active: IC50 [1] | Ki [1] | IC50 [2] | Ki [2] | IC50 [3] | IC50 [4] | IC50 [5] | IC50 [6] | Ki [6] | IC50 [7]

C[C@]12CC[C@@H]3c4ccc(OC(=O)c5ccccc5)cc4CC[C@H]3[C@@H]1CC[C@@H]2O [ESTRADIOL BENZOATE]
Not Active: IC50 [1] | Ki [1] | IC50 [2] | Ki [2] | IC50 [3] | IC50 [4] | IC50 [5] | IC50 [6] | Ki [6] | IC50 [7]

C[C@]12CC[C@@H]3c4ccc(O)cc4CC[C@H]3[C@@H]1CC[C@@H]2O [ESTRADIOL]
Not Active: IC50 [1] | Ki [1] | IC50 [2] | Ki [2] | IC50 [3] | IC50 [4] | IC50 [5] | IC50 [6] | Ki [6] | IC50 [7]

CC[C@@H](CO)NCCN[C@@H](CC)CO [ETHAMBUTOL]
Not Active: IC50 [1] | Ki [1] | IC50 [2] | Ki [2] | IC50 [3] | IC50 [4] | IC50 [5] | IC50 [6] | Ki [6] | IC50 [7]

CC1(C)O[C@@H]2C[C@H]3[C@@H]4C[C@H](F)C5=CC(=O)C=C[C@]5(C)[C@H]4[C@@H](O)C[C@]3(C)[C@]2(C(=O)CO)O1 [FLUNISOLIDE]
Not Active: IC50 [1] | Ki [1] | IC50 [2] | Ki [2] | IC50 [3] | IC50 [4] | IC50 [5] | IC50 [6] | Ki [6] | IC50 [7]

CC1(C)O[C@@H]2C[C@H]3[C@@H]4C[C@H](F)C5=CC(=O)C=C[C@]5(C)[C@@]4(F)[C@@H](O)C[C@]3(C)[C@]2(C(=O)CO)O1 [FLUOCINOLONE ACETONIDE]
Not Active: IC50 [1] | Ki [1] | IC50 [2] | Ki [2] | IC50 [3] | IC50 [4] | IC50 [5] | IC50 [6] | Ki [6] | IC50 [7]
